Results as given in article PMC10879502, “Linking ATP and allosteric sites to achieve superadditive binding with bivalent EGFR kinase inhibitors” (Communications Chemistry, 2024).
Several values for one entry are separate records, joined by “and”; a condition that tells them apart may be missing. Equal entries are not always repeated. Where two headings read alike, the source gives them in different places. Each block holds one compound with its values, some of them ahead of it.

Tests used:
[1] = molecular target: T1, EGFR L858R/T790M (LRTM) kinase domain (Homo sapiens, UniProt P00533, L858R/T790M); assay: HTRF KinEASE-TK kinase activity assay; assay type: biochemical
T1 construct: The EGFR kinase domain (residues 696–1022) was cloned into pTriEx; 6xHis (N, cleaved yes); GST (N, cleaved yes); made in house; host or cells: SF9 insect cells, baculovirus

[2] = molecular target: T2, EGFR L858R/T790M/C797S (LRTMCS) kinase domain (Homo sapiens, UniProt P00533, C797S/L858R/T790M); assay: HTRF KinEASE-TK kinase activity assay; assay type: biochemical
T2 construct: The EGFR kinase domain (residues 696–1022) was cloned into pTriEx; 6xHis (N, cleaved yes); GST (N, cleaved yes); made in house; host or cells: SF9 insect cells, baculovirus

[3] = test system: Ba/F3 cells, LR/TM/CS EGFR; conditions: Ba/F3 ref 4 Wittlinger and Heppner; cited from earlier work
Ba/F3 cells, L858R EGFR = conditions: Ba/F3 ref 4 Wittlinger and Heppner; read-out: EGFR EC50, LR; cited from earlier work
[4] = test system: Ba/F3 cells, wildtype EGFR; conditions: Ba/F3 ref 4 Wittlinger and Heppner; read-out: EGFR EC50, wt; cited from earlier work
[5] = Table S1, ATP 100 µM, read-out: IC50, LRTM

T1 sequence (P00533 696-1022 T790M/L858R): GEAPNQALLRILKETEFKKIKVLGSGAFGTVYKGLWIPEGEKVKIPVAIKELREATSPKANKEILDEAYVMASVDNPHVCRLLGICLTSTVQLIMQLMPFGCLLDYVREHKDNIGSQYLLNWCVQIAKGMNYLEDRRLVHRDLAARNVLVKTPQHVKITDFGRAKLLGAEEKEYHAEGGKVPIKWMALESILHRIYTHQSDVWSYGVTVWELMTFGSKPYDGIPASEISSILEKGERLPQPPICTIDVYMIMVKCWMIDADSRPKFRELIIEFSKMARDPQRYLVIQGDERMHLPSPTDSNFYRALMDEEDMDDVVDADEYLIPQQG
T2 sequence (P00533 696-1022 T790M/C797S/L858R): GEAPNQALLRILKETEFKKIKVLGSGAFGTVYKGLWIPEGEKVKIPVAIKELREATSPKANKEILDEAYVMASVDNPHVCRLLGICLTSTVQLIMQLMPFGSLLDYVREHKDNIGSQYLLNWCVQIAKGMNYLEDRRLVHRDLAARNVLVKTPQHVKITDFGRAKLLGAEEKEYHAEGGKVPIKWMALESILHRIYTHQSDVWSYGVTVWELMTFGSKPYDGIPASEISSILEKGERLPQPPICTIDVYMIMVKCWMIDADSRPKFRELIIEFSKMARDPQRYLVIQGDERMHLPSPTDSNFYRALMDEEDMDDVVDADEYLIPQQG

- IC50 [1, 5]: ≥ 10 µM
SMILES: COc1ccc2c(c1)C(=O)Nc1c(cccc1C(=O)Nc1nccs1)N2 [Compound 12]

SMILES: CSc1nc(-c2ccc(F)cc2)c(-c2ccnc(NC(C)=O)c2)[nH]1 [Compound 5, reference compound]
- IC50 ([2]; enzyme 0.02 nM, ATP 100 µM, read-out: Biochemical EGFR IC50, LRTMCS): 6 ± 0.5 µM
- IC50 ([2]; read-out: IC50, LRTMCS): 6 to 10 µM
- IC50 [1, 5]: 6 to 10 µM and ≥ 6 µM
- IC50 ([1]; enzyme 0.02 nM, ATP 100 µM, read-out: Biochemical EGFR IC50, LRTM): 5.8 ± 0.3 µM

SMILES: C=CC(=O)Nc1ccc(OC)c(Nc2cc(-c3[nH]c(SC)nc3-c3ccc(F)cc3)ccn2)c1 [Compound 7]
- EC50 [3]: 1.6 ± 0.2 µM
- EC50 (Ba/F3 cells, L858R EGFR): < 0.001 µM
- EC50 [4]: 0.02 ± 0.006 µM

- IC50 [1, 5]: ≥ 10 µM
SMILES: O=C1Nc2c(cccc2C(=O)Nc2nccs2)Nc2ccccc21 [Compound 11]
